Data set [1] relates to CL187 cells. The experiment in a line: Intracellular drug distribution (LC-MS/MS). The note with it: CL187 cells incubated 6 h; nucleus, mitochondria, cytoplasm extracts. In kind it is in vitro ADME, Human. The procedure: CL187 cells were inoculated in 6-well plates, until the well was full of the cells. Then the supernatant was discarded, and the cells were washed with PBS three times. The cells were added with the different concentrations of PTE or RE and incubated for 6 h. After supernatant was discarded, the cells were washed with cold Hank’s solution for three times to terminate cell metabolism. Cell cytoplasm, nucleus, and mitochondria were extracted with the nuclear and mitochondrial extraction kit (KeyGEN BioTECH, Nanjing, China). Cells were resuspended with 1.5 mL Lysis Buffer and transferred to a 2 mL glass homogenizer for grinding (0–4 °C ice bath). The homogenate was collected and centrifuged at 800× g at 4 °C for 5 min. The nuclei were distributed in the precipitate, while the mitochondria were distributed in the supernatant. […] The protein concentration of each extract was detected by the BCA kit.
The drug contents of the extracted cell cytoplasm, nucleus, and mitochondria were determined by LC-MS/MS. […] The calibration range for the quantitation of each compound in all cellular components was 10 to 10,000 ng/mL. […]

Data set [2] deals with CL187 cells. The experiment in a line: Apoptosis by flow cytometry (Annexin V-FITC/PI). In kind it is cell-based, Human. The note with it: 48 h. On the procedure: Exponentially growing CL187 cells were seeded in 6-well plates (1.2 × 10^6 cells/well) until a well was filled with cells. The RE or PTE at various concentrations were added separately into plate wells and incubated with cells for 48 h. The incubated cells were collected and treated by Annexin V-FITC/PI Apoptosis Detection Kit. The stained cells were analyzed with a flow cytometer (Becton-Dickinson, Franklin Lakes, NJ, USA), and data analyses were performed with BD Cell Quest^TM pro 6.0..
On the technique in general: A flow cytometer gives signals particle by particle.

In the case of `COc1cc(/C=C/c2ccc(O)cc2)cc(OC)c1` [PTE, 3,5-dimethoxy-4′-hydroxy-trans-stilbene], in the data set on CL187 cells [1], the “concentration of drug in cells (maximum)” value is recorded as “more than 70.0 ng/μg”. The “apoptosis rate (early and late apoptotic cells)” value in the data set with CL187 cells [2] (CL187, 10 μM) was determined as 28.95%; in the data set on CL187 cells [2] (CL187, 20 μM), 29.69%; with CL187 cells [2] (CL187, 50 μM) it was 25.76%.

Values taken from publication PMC8391236, “Effect of Pterostilbene, a Natural Derivative of Resveratrol, in the Treatment of Colorectal Cancer through Top1/Tdp1-Mediated DNA Repair Pathway” (Cancers, 2021).
